Reference: publication PMC10676574, “In-silico and in-vitro screening of Asiatic acid and Asiaticoside A against Cathepsin S enzyme” (BMC Pharmacology & Toxicology, 2023)
pIC50: −log10 of the molar value. Like-named read-outs stand apart in the source and are kept apart here.

Molecular target: T1, Cathepsin S (Homo sapiens, UniProt P25774)
T1 construct: gene CTSS
Experiment: fluorometric cathepsin S inhibitor assay kit (ab185437), Z-VVR-AFC substrate, kinetic mode
Format: biochemical

T1 sequence (P25774 115-331): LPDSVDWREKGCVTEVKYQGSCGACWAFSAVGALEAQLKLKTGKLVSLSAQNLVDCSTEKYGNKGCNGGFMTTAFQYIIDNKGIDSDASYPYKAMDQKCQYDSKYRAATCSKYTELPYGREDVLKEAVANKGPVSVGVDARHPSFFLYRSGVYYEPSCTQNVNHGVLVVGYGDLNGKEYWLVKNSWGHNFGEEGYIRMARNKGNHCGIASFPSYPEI

| Compound | pIC50 (read-out: IC50) | pIC50 |
| --- | --- | --- |
| asiaticoside A | 6.18 |  |
| C[C@H]1[C@H](C)CC[C@]2(C(=O)O)CC[C@]3(C)C(=CC[C@@H]4[C@@]5(C)C[C@@H](O)[C@H](O)[C@@](C)(CO)[C@@H]5CC[C@]43C)[C@H]12 [asiatic acid] |  | 4.83 |
